Columns and labels:
CDK9 = CDK9 (Homo sapiens, UniProt P50750); settings: Olomoucine II compared with Roscovitine; cited from earlier work
[1] = tested on: tumor suppressor protein p53; settings: Olomoucine II compared with Roscovitine; cited from earlier work
[2] = tested on: CMV promoter (plasmid pCMV-lacZ); assay: β-galactosidase expression from transiently transfected pCMV-lacZ in MCF-7 and T47D; settings: transiently transfected MCF-7 and T47D (FIG. 9)
HSV-1 = assay: Plaque number reduction assay, HSV-1 on HFFF; assay type: cell-based, Herpes simplex virus type 1 strain 17
HAd4 = assay: Plaque number reduction assay, HAd4 on A549; assay type: cell-based, Human adenovirus type 4 (HAdV-4) strain RI-6
IV = assay type: cell-based, Influenza Virus H1N1 strain A/PR/8/34; settings: MDCK cells
[3] = tested on: SV40 large T-antigen in COS-1 cells; assay: Expression from SV40 promoter incorporated in the cellular genome (COS-1 cells); assay type: cell-based; settings: COS-1 cells (FIG. 10)
Procedure: Cell were detached with rubber policeman and washed three times with ice-cold PBS and lysed in buffer (50 mM Tris, pH 7.4, 250 mM NaCl, 5 mM EDTA, 50 mM NaF, 1 mM Na3VO4, 1% Nonidet P40) containing mixture of protease and phosphatase inhibitors (Sigma-Aldrich St Louis, Mo., USA). 20 μg of total proteins were separated by SDS-polyacrylamide gel electrophoresis (SDS-PAGE) on 8% or 10% gels and transferred onto nitrocellulose membranes. Membranes were blocked in 5% milk and 0.1% Tween 20 in PBS and probed overnight with specific monoclonal antibodies or rabbit polyclonal sera. Primary antibodies specific for RNA polymerase II (all from Santa Cruz Biotechnology, California, USA) included: (i) N-20 used at […] (ii) H14, specific for form phosphorylated at phosphoserine 5, used at 6 μg/ml and (iii) H5, specific for form phosphorylated at phosphoserine 2 used at 4 μg/ml. Additional primary mAb used in immunblots included (iv) anti-p53 (D0-1, in house, […]) used at 1 μg/ml, (v) anti-p21^WAF1 (118, in house), used at 1 μg/ml), (vi) anti-actin (A-2066, Sigma-Aldrich St Louis, Mo., USA) used at 1 μg/ml, (vii) anti-T-antigen (419, in house, Lane), used at 1 μg/ml. All primary antibodies were diluted in PBS containing 5% powdered milk; 0.1% Tween 20. […]

[4] = tested on: HIV promoter (pHIV-lacZ, extrachromosomal) in H1299-TAT cells; assay: β-galactosidase expression from pHIV-lacZ transiently transfected to H1299-TAT; settings: H1299-TAT cells (FIG. 11)
HSV-2 = assay: Plaque number reduction assay, HSV-2 on HFFF; assay type: cell-based, HSV-2 strain HG52
MV = MV syncytium reduction assay in B95a cells; assay type: cell-based, Measles virus wildtype strain WTFb
[5] = tested on: C-terminal domain (CTD) of RNA polymerase II, serine 2 and serine 5; assay: Immunoblotting: phosphorylation of the C-terminal domain of RNA polymerase II; assay type: cell-based; settings: 12 hours treatment, cell lines with incorporated SV40, all tested cell lines (FIG. 12A)
Procedure: Cell were detached with rubber policeman and washed three times with ice-cold PBS and lysed in buffer (50 mM Tris, pH 7.4, 250 mM NaCl, 5 mM EDTA, 50 mM NaF, 1 mM Na3VO4, 1% Nonidet P40) containing mixture of protease and phosphatase inhibitors (Sigma-Aldrich St Louis, Mo., USA). 20 μg of total proteins were separated by SDS-polyacrylamide gel electrophoresis (SDS-PAGE) on 8% or 10% gels and transferred onto nitrocellulose membranes. Membranes were blocked in 5% milk and 0.1% Tween 20 in PBS and probed overnight with specific monoclonal antibodies or rabbit polyclonal sera. Primary antibodies specific for RNA polymerase II (all from Santa Cruz Biotechnology, California, USA) included: (i) N-20 used at 1 μg/ml, (ii) H14, specific for form phosphorylated at phosphoserine 5, used at 6 μg/ml and (iii) H5, specific for form phosphorylated at phosphoserine 2 used at 4 μg/ml. Additional primary mAb used in immunblots included (iv) anti-p53 (DO-1, in house) used at 1 μg/ml, (v) anti-p21^WAF1 (118, in house), used at 1 μg/ml), (vi) anti-actin (A-2066, Sigma-Aldrich St Louis, Mo., USA) used at 1 μg/ml, (vii) anti-T-antigen (419, in house), used at 1 μg/ml. All primary antibodies were diluted in PBS containing 5% powdered milk; 0.1% Tween 20. Peroxidase conjugated rabbit anti-mouse immunoglobulin or porcine anti-rabbit immunoglobulin antisera (DAKO, Glostrup, Denmark) were used as the secondary antibodies and visualised with ECL reagents (Amersham-Pharmacia, Little Chalfont, UK).
Modulation of expression from the HIV promoter by CDKI treatment may be mediated by transcriptional regulation. At the C-terminus of the largest subunit of RNA Pol II is an important regulatory domain referred to as CTD (C-terminal domain). We therefore investigated the effect of CDKIs on CTD serine 2 and serine 5 phosphorylation. […] Although the functions of CDKs and RNA polymerase II were suppressed, the expression from incorporated viral promoters was enhanced.
Cell were detached with rubber policeman and washed three times with ice-cold PBS and lysed in buffer (50 mM Tris, pH 7.4, 250 mM NaCl, 5 mM EDTA, 50 mM NaF, 1 mM Na3VO4, 1% Nonidet P40) containing mixture of protease and phosphatase inhibitors (Sigma-Aldrich St Louis, Mo., USA). 20 μg of total proteins were separated by SDS-polyacrylamide gel electrophoresis (SDS-PAGE) on 8% or 10% gels and transferred onto nitrocellulose membranes. Membranes were blocked in 5% milk and 0.1% Tween 20 in PBS and probed overnight with specific monoclonal antibodies or rabbit polyclonal sera. […]

HCMV = assay: Plaque number reduction assay, HCMV on HFFF; assay type: cell-based, Human cytomegalovirus strain Toledo
VV = assay type: cell-based, Vaccinia virus strain WR; settings: Vaccinia virus on HFFF
SV40 large T-antigen = assay type: cell-based; settings: SV40-infected MCF-7 and T47D; 20 μM Roscovitine or 8 μM 105 (FIG. 8)
[6] = tested on: HIV promoter integrated into cellular DNA (H1299-HIV cells); assay: β-galactosidase expression from pHIV-lacZ incorporated to cellular genome (H1299-HIV); settings: HIV promoter integrated into cellular DNA (FIG. 11)

CDK9, sequence (P50750 whole entry, species assumed): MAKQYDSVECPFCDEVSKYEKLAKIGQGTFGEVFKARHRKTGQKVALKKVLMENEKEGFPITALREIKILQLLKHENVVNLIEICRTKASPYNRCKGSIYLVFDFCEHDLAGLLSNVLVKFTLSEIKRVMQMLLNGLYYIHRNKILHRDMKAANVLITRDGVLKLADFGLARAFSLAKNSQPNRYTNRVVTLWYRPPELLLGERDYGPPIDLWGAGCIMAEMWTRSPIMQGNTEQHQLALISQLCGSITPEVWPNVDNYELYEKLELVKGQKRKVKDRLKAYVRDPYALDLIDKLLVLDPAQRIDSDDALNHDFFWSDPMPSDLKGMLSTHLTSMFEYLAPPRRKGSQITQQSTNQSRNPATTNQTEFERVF
CDK9, sequence (O60563 whole entry partner, species assumed): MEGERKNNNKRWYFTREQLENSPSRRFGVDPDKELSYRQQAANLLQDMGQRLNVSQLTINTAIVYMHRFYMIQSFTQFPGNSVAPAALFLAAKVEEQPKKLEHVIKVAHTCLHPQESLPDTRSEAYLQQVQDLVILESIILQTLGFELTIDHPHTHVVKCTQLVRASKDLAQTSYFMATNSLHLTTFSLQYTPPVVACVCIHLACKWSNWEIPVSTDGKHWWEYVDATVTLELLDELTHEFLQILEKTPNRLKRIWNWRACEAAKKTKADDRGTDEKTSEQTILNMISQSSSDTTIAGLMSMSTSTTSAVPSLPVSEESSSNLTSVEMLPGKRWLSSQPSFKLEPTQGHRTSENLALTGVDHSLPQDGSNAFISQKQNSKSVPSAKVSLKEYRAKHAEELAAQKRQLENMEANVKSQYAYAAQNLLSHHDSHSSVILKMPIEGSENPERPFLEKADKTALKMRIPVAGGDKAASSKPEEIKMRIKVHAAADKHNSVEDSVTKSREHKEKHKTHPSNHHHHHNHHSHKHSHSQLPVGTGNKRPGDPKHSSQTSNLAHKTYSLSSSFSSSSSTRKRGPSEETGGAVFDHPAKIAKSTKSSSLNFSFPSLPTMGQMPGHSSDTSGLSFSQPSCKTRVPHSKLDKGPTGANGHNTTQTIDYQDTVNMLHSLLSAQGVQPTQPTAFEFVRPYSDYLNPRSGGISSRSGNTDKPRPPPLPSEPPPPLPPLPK

| Compound | higher inhibitory activity for CDK9 (CDK9) | lower concentrations inducing nuclear accumulation and transcriptional activation of p53 [1] | expression from CMV promoter (β-galactosidase activity) [2] | inhibition of virus replication (in words) (HSV-1) | inhibition of virus replication (in words) (HAd4) | inhibition of virus replication (in words) (IV) | large T-antigen expression [3] | expression from pHIV-lacZ (extrachromosomal location), β-galactosidase readout [4] | inhibition of virus replication (in words) (HSV-2) | inhibition of virus replication (in words) (MV) | phosphorylation of both serine 2 and serine 5 of RNA polymerase II CTD [5] | inhibition of virus replication (in words) (HCMV) | inhibition of virus replication (in words) (VV) | level of large T-antigen (SV40 large T-antigen) | increase of reporter readout [6] |
| --- | --- | --- | --- | --- | --- | --- | --- | --- | --- | --- | --- | --- | --- | --- | --- |
| CC[C@H](CO)Nc1nc(NCc2ccccc2O)c2ncn(C(C)C)c2n1 [Olomoucine II] | 10 fold | 2-3 fold |  |  |  |  |  |  |  |  |  |  |  |  |  |
| CC[C@H](CO)Nc1nc(NCc2ccccc2)c2ncn(C(C)C)c2n1 [Roscovitine, 2-(R)-(1-Ethyl-2-hydroxyethylamino)-6-benzylamino-9-isopropylpurine, reference compound] |  |  | inhibited expression | did not inhibit | inhibited HAd4 replication | ineffective | stimulated large T-antigen expression | inhibited | did not inhibit | ineffective | inhibited | equally sensitive | no overt effect | reduced level | 2.5 times |

Reference: patent US9023857B2, “Substituted 6-(2-aminobenzylamino)purine derivatives, their use as medicaments and preparations containing these compounds” (Univerzita Palackeho V Olomouci, priority 2009, dated 2015)
